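At the GI50, growth is halved. Definition used: TGI = concentration required for complete inhibition of growth.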
Key:
Assay in all cases: DTP human tumour cell line panel, 384-well format; in the data active means GI50 below about 0.43 µM; inactive means the rest
[1] = system: COLO 205 colon
[2] = system: T-47D breast
[3] = system: SF-295 CNS
[4] = system: NCI-H226 lung
[5] = system: HCT-15 colon
[6] = system: SNB-19 CNS
[7] = system: 786-0 renal
[8] = system: MDA-MB-435 melanoma
[9] = system: UACC-257 melanoma
[10] = system: NCI-H522 lung
[11] = system: OVCAR-5 ovarian
[12] = system: UO-31 renal
[13] = system: TK-10 renal

C[C@H](NC(=O)CCC(F)(F)F)C(=O)N[C@@H]1C(=O)N(CCO)c2ncccc2-c2ccccc21
inactive: GI50 [1] > 100 µM | GI50 [2] > 100 µM | GI50 [3] > 100 µM | GI50 [4] > 100 µM | GI50 [5] > 100 µM | GI50 [6] > 100 µM | GI50 [7] > 100 µM | GI50 [8] > 100 µM | GI50 [9] > 100 µM | GI50 [10] > 100 µM | GI50 [11] > 100 µM | GI50 [12] > 100 µM | GI50 [13] > 100 µM
> 100 µM: TGI [1] | TGI [2] | TGI [3] | TGI [4] | TGI [5] | TGI [6] | TGI [7] | TGI [8] | TGI [9] | TGI [10] | TGI [11] | TGI [12] | TGI [13]

Reference: PubChem BioAssay (NCI)
